Results: US6706740B2, “Fungicidal heterocyclic aromatic amides and their compositions, methods of use and preparation” (Dow AgroSciences LLC, priority 1999, dated 2004)
Like-named read-outs stand apart in the source and are kept apart here.

Legend:
[1] = system: Ustilago maydis (USTIMA); experiment: microbe, parasite or virus in culture; assay type: cell-based; settings: Mycosarcoma maydis, read-out: USTIMA in vitro Growth Inhibition
[2] = system: Mycosphaerella graminicola (Septoria tritici—SEPTTR); experiment: In vitro fungal growth inhibition, Mycosphaerella graminicola (SEPTTR); assay type: cell-based; settings: Zymoseptoria tritici; 25 ppm in growth medium; read-out: SEPTTR in vitro Growth Inhibition
[3] = system: Phytophthora infestans—PHYTIN; experiment: whole plant or invertebrate; assay type: in vivo; settings: Phytophthora, in Solanum lycopersicum, 24 h, read-out: PHYTIN in vivo 1 Day Protectant
[4] = system: Magnaporthe grisea (Pyricularia oryzae—PYRIOR); experiment: microbe, parasite or virus in culture; assay type: cell-based; settings: Pyricularia oryzae, read-out: PYRIOR in vitro Growth Inhibition
[5] = system: Septoria tritici—SEPTTR; experiment: Leaf Blotch of Wheat, in vivo whole plant, 24 Hour Protectant
[6] = system: Rhizoctonia solani (RHIZSO); experiment: microbe, parasite or virus in culture; assay type: cell-based; settings: Rhizoctonia solani, read-out: RHIZSO in vitro Growth Inhibition
[7] = system: Phytophthora infestans (PHYTIN); experiment: microbe, parasite or virus in culture; assay type: cell-based; settings: Phytophthora infestans, read-out: PHYTIN in vitro Growth Inhibition
[8] = system: Erysiphe graminis—ERYSGT; experiment: Powdery Mildew of Wheat, in vivo whole plant, 24 Hour Protectant
[9] = system: Leptosphaeria nodorum—LEPTNO; experiment: Glume Blotch of Wheat, in vivo whole plant, 24 Hour Protectant
[10] = system: Stagonospora nodorum (Leptosphaeria nodorum—LEPTNO); experiment: In vitro fungal growth inhibition, Stagonospora nodorum (LEPTNO); assay type: cell-based; settings: Leptosphaeria; 25 ppm in growth medium; read-out: LEPTNO in vitro Growth Inhibition
[11] = system: Puccinia recondita—PUCCRT; experiment: Brown Rust of Wheat, in vivo whole plant, 24 Hour Protectant
[12] = Zymoseptoria tritici, 24 h, 100 ppm spray, wheat, 24 hour protectant; control of fungal infection vs untreated plants; read-out: SEPTTR in vivo 1 Day Protectant
[13] = Erysiphe; 100 ppm spray, wheat, 24 hour protectant; control of fungal infection vs untreated plants; read-out: ERYSGT in vivo 1 Day Protectant
[14] = Puccinia; 100 ppm spray, wheat, 24 hour protectant; control of fungal infection vs untreated plants; read-out: PUCCRT in vivo 1 Day Protectant
[15] = Zymoseptoria tritici, 24 h, 100 ppm spray, 24 hour protectant, wheat; control of fungal infection vs untreated plants; read-out: SEPTTR in vivo 1 Day Protectant
[16] = Erysiphe; 100 ppm spray, 24 hour protectant, wheat; control of fungal infection vs untreated plants; read-out: ERYSGT in vivo 1 Day Protectant
[17] = Leptosphaeria; 100 ppm spray, 24 hour protectant, wheat; control of fungal infection vs untreated plants; read-out: LEPTNO in vivo 1 Day Protectant
[18] = Puccinia; 100 ppm spray, 24 hour protectant, wheat; control of fungal infection vs untreated plants; read-out: PUCCRT in vivo 1 Day Protectant
[19] = 100 ppm spray, 24 hour protectant, wheat; control of fungal infection vs untreated plants
[20] = Leptosphaeria; 100 ppm spray, wheat, 24 hour protectant; control of fungal infection vs untreated plants; read-out: LEPTNO in vivo 1 Day Protectant

| Compound | inhibition at 25 ppm [1] | inhibition at 25 ppm [2] | pest or weed control at 100 ppm [3] | inhibition at 25 ppm [4] | pest or weed control at 100 ppm [5, 12] | inhibition at 25 ppm [6] | inhibition at 25 ppm [7] | pest or weed control at 100 ppm [8, 13] | LEPTNO in vivo 1 Day Protectant ([9]; 100 ppm spray, wheat, 24 hour protectant; control of fungal infection vs untreated plants) | inhibition at 25 ppm [10] | pest or weed control at 100 ppm [11, 14] | pest or weed control at 100 ppm [5, 15] | pest or weed control at 100 ppm [8, 16] | pest or weed control at 100 ppm [9, 17] | pest or weed control at 100 ppm [11, 18] | LEPTNO in vivo 1 Day Protectant [9, 19] | PUCCRT in vivo 1 Day Protectant [11, 19] | pest or weed control at 100 ppm [9, 20] |
| --- | --- | --- | --- | --- | --- | --- | --- | --- | --- | --- | --- | --- | --- | --- | --- | --- | --- | --- |
| COc1ccnc(C(=O)N[C@H]2COC(=O)[C@H](Cc3ccccc3)[C@@H](OC(=O)C3CCCCC3)[C@H](C)OC2=O)c1O [Compound 392] | < 80% | > 80% | < 25% | > 80% | 25 to 74% | < 80% | < 80% | 25 to 74% | + + | > 80% | 25 to 74% |  |  |  |  |  |  |  |
| COc1ccnc(C(=O)NC2CCN(C(=O)CCc3ccccc3)CC2)c1O [Compound 309] | < 80% | < 80% | < 25% | < 80% |  | < 80% | < 80% |  |  | < 80% |  | < 25% | 25 to 74% | 25 to 74% | < 25% |  |  |  |
| O=C(NCCc1ccc(Cl)cc1)c1ncccc1O [Compound 233, N-(2-(4-CHLOROPHENYL)ETHYL)-3-HYDROXYPYRIDINE-2-CARBOXAMIDE] | > 80% | > 80% | < 25% | > 80% |  | < 80% | > 80% |  |  | > 80% |  | 25 to 74% | < 25% | < 25% | < 25% |  |  |  |
| COc1ccnc(C(=O)N[C@@H]2CC3CC2c2ccccc23)c1O (some centres unmarked) [Compound 290] | < 80% | > 80% | < 25% | > 80% |  | > 80% | < 80% |  |  | > 80% |  | 25 to 74% | 25 to 74% |  |  | + + | + + |  |
| COc1ccnc(C(=O)NC2CC(C)(C)C(OC(=O)CC(C)C)C(C)(C)C2)c1O (centres unmarked) [Compound 267] | > 80% | < 80% | < 25% | < 80% |  | < 80% | > 80% |  |  | > 80% |  | < 25% | < 25% | 25 to 74% | 25 to 74% |  |  |  |
| COc1ccnc(C(=O)Nc2ccc(Sc3ccc(C(F)(F)F)cc3)cc2)c1O [Compound 446] | < 80% | < 80% | 25 to 74% | < 80% | < 25% | < 80% | < 80% | < 25% |  | < 80% | < 25% |  |  |  |  |  |  | < 25% |
| COc1ccnc(C(=O)N[C@@H]2[C@@H](O)[C@H](O)[C@@H](CO)O[C@@H]2O)c1O [Compound 334, N-(3-HYDROXY-4-METHOXY-2-PYRIDYLCARBONYL)-2-AMINO-2-DEOXY-alpha-D-GLUCOPYRANOSE] | < 80% | < 80% | < 25% | < 80% | < 25% | < 80% | < 80% | < 25% |  | < 80% | < 25% |  |  |  |  |  |  | 25 to 74% |
